# Test results as given in patent US10807992B2, “Single enantiomer antiparasitic compounds” (priority 2017, dated 2020).
# Legend:
# Ctenocephalides felis [1] = assay: In vitro ingestion activity against fleas (artificial feeding, bovine blood); details: for mortality at 0.003 ppm: Trial 3, dose 0.003 ppm; for mortality at 0.012 ppm: Trial 3, dose 0.012 ppm; for mortality at 0.049 ppm: Trial 3, dose 0.049 ppm; for mortality at 0.2 ppm: Trial 3, dose 0.20 ppm; for mortality at 0.78 ppm: Trial 3, dose 0.78 ppm; for mortality at 3.125 ppm: Trial 3, dose 3.125 ppm; for mortality at 12.5 ppm: Trial 3, dose 12.5 ppm; for mortality at 50 ppm: Trial 3, dose 50 ppm
# Protocol: (§1) Ctenocephalides felis (Avista Pharma, Inc., RTP, NC), 1-7days post hatch, held in an environmental chamber at 24° C., 85% humidity.
# For flea ingestion tests, serial dilutions of the compound stock were performed using DMSO to achieve the desired range for EC50 and EC90 determination. An aliquot of each compound dilution was added to organic bovine blood with a final DMSO concentration of 0.5% and placed in an artificial feeding container.
# (§2) Compounds tested were C1 racemate, the C1 (R) enantiomer, and the C1 (S) enantiomer. For Trial 3, the C1 (R) enantiomer and the C1 (S) enantiomer were further chiral purified to achieve >99% purity.
# (§3) For both contact and ingestion assays, ten newly emerged unfed adult fleas, 0-7 days old Ctenocephalides felis, from a laboratory colony, were aspirated into each vial or cage. The test vials for contact assays were held in an environmental chamber at 24° C., 80% humidity with light/dark cycles (12 hours each). The cages for flea ingestion assays were held in a temperature-controlled artificial feeding apparatus to allow continual access to organic bovine blood containing the desired concentration of compound. Fresh aliquots of compound-spiked bovine blood were provided daily for the duration of the study.
# (§4) Fleas were evaluated for percent mortality at various time points between 2 hours and 48 hours post infestation. Fleas showing normal movement and/or jumping ability were considered viable and those showing no movement after tapping the vials were scored as dead.
# Ctenocephalides felis [2] = assay: In vitro contact activity against fleas (coated substrate); details: for mortality at 0.006 ppm: Trial 3, dose 0.006 ppm; for mortality at 0.024 ppm: Trial 3, dose 0.024 ppm; for mortality at 0.098 ppm: Trial 3, dose 0.098 ppm; for mortality at 0.39 ppm: Trial 3, dose 0.39 ppm; for mortality at 1.56 ppm: Trial 3, dose 1.56 ppm; for mortality at 6.25 ppm: Trial 3, dose 6.25 ppm; for mortality at 25 ppm: Trial 3, dose 25 ppm; for mortality at 100 ppm: Trial 3, dose 100 ppm
# Protocol: as §1
# For flea contact tests, vial caps were pre-drilled with a single hole in the center of each cap to allow air exchange. A filter paper (Whatman Grade 540 2.1 cm) was placed in the lid of each vial. Pipe cleaners cut to 0.5 inches were inserted in each test vial. An aliquot was taken from each compound stock and added to an acetone/triton solution to achieve the desired top concentrations for the study. Serial dilutions were conducted from the top dose (i.e. 100 ppm) to achieve the desired concentration for EC50 and EC90 determination. The final DMSO concentration was 0.5%. A 75 μL aliquot of each compound formulation was added to each 0.5 inch pipe cleaner contained in the treatment vial. The vials were loosely capped and allowed to dry for a minimum of four hours in a chemical fume hood.
# as §2, §3, §4
smiles,measurement,setting,value
"O=C(CC(F)(F)F)N1CC2(C1)OCc1cc(C3=NS[C@@](c4cc(Cl)c(F)c(Cl)c4)(C(F)(F)F)C3)ccc12 [C1 (S) enantiomer, (S)-1-[6-[5-(3,5-dichloro-4-fluoro-phenyl)-5-(trifluoromethyl)-4H-isothiazol-3-yl]spiro[1H-isobenzofuran-3,3′-azetidine]-1′-yl]-3,3,3-trifluoro-propan-1-one]",mortality at 0.003 ppm,"Ctenocephalides felis [1]; 6 h, Rep1",0%
same,mortality at 0.003 ppm,"Ctenocephalides felis [1]; 6 h, Rep2",0%
same,mortality at 0.012 ppm,"Ctenocephalides felis [1]; 6 h, Rep1",0%
same,mortality at 0.012 ppm,"Ctenocephalides felis [1]; 6 h, Rep2",0%
same,mortality at 0.049 ppm,"Ctenocephalides felis [1]; 6 h, Rep1",0%
same,mortality at 0.049 ppm,"Ctenocephalides felis [1]; 6 h, Rep2",0%
same,mortality at 0.2 ppm,"Ctenocephalides felis [1]; 6 h, Rep1",10%
same,mortality at 0.2 ppm,"Ctenocephalides felis [1]; 6 h, Rep2",20%
same,mortality at 0.78 ppm,"Ctenocephalides felis [1]; 6 h, Rep1",80%
same,mortality at 0.78 ppm,"Ctenocephalides felis [1]; 6 h, Rep2",70%
same,mortality at 3.125 ppm,"Ctenocephalides felis [1]; 6 h, Rep1",100%
same,mortality at 3.125 ppm,"Ctenocephalides felis [1]; 6 h, Rep2",60%
same,mortality at 12.5 ppm,"Ctenocephalides felis [1]; 6 h, Rep1",100%
same,mortality at 12.5 ppm,"Ctenocephalides felis [1]; 6 h, Rep2",100%
same,mortality at 50 ppm,"Ctenocephalides felis [1]; 6 h, Rep1",100%
same,mortality at 50 ppm,"Ctenocephalides felis [1]; 6 h, Rep2",100%
same,mortality at 0.003 ppm,"Ctenocephalides felis [1]; 24 h, Rep1",0%
same,mortality at 0.003 ppm,"Ctenocephalides felis [1]; 24 h, Rep2",0%
same,mortality at 0.012 ppm,"Ctenocephalides felis [1]; 24 h, Rep1",0%
same,mortality at 0.012 ppm,"Ctenocephalides felis [1]; 24 h, Rep2",0%
same,mortality at 0.049 ppm,"Ctenocephalides felis [1]; 24 h, Rep1",20%
same,mortality at 0.049 ppm,"Ctenocephalides felis [1]; 24 h, Rep2",10%
same,mortality at 0.2 ppm,"Ctenocephalides felis [1]; 24 h, Rep1",10%
same,mortality at 0.2 ppm,"Ctenocephalides felis [1]; 24 h, Rep2",50%
same,mortality at 0.78 ppm,"Ctenocephalides felis [1]; 24 h, Rep1",100%
same,mortality at 0.78 ppm,"Ctenocephalides felis [1]; 24 h, Rep2",90%
same,mortality at 3.125 ppm,"Ctenocephalides felis [1]; 24 h, Rep1",100%
same,mortality at 3.125 ppm,"Ctenocephalides felis [1]; 24 h, Rep2",80%
same,mortality at 12.5 ppm,"Ctenocephalides felis [1]; 24 h, Rep1",100%
same,mortality at 12.5 ppm,"Ctenocephalides felis [1]; 24 h, Rep2",100%
same,mortality at 50 ppm,"Ctenocephalides felis [1]; 24 h, Rep1",100%
same,mortality at 50 ppm,"Ctenocephalides felis [1]; 24 h, Rep2",100%
same,mortality at 0.003 ppm,"Ctenocephalides felis [1]; 48 h, Rep1",0%
same,mortality at 0.003 ppm,"Ctenocephalides felis [1]; 48 h, Rep2",0%
same,mortality at 0.012 ppm,"Ctenocephalides felis [1]; 48 h, Rep1",0%
same,mortality at 0.012 ppm,"Ctenocephalides felis [1]; 48 h, Rep2",0%
same,mortality at 0.049 ppm,"Ctenocephalides felis [1]; 48 h, Rep1",20%
same,mortality at 0.049 ppm,"Ctenocephalides felis [1]; 48 h, Rep2",20%
same,mortality at 0.2 ppm,"Ctenocephalides felis [1]; 48 h, Rep1",30%
same,mortality at 0.2 ppm,"Ctenocephalides felis [1]; 48 h, Rep2",70%
same,mortality at 0.78 ppm,"Ctenocephalides felis [1]; 48 h, Rep1",100%
same,mortality at 0.78 ppm,"Ctenocephalides felis [1]; 48 h, Rep2",90%
same,mortality at 3.125 ppm,"Ctenocephalides felis [1]; 48 h, Rep1",100%
same,mortality at 3.125 ppm,"Ctenocephalides felis [1]; 48 h, Rep2",100%
same,mortality at 12.5 ppm,"Ctenocephalides felis [1]; 48 h, Rep1",100%
same,mortality at 12.5 ppm,"Ctenocephalides felis [1]; 48 h, Rep2",100%
same,mortality at 50 ppm,"Ctenocephalides felis [1]; 48 h, Rep1",100%
same,mortality at 50 ppm,"Ctenocephalides felis [1]; 48 h, Rep2",100%
same,mortality at 0.006 ppm,"Ctenocephalides felis [2]; 6 h, Rep1",0%
same,mortality at 0.006 ppm,"Ctenocephalides felis [2]; 6 h, Rep2",0%
same,mortality at 0.024 ppm,"Ctenocephalides felis [2]; 6 h, Rep1",0%
same,mortality at 0.024 ppm,"Ctenocephalides felis [2]; 6 h, Rep2",0%
same,mortality at 0.098 ppm,"Ctenocephalides felis [2]; 6 h, Rep1",0%
same,mortality at 0.098 ppm,"Ctenocephalides felis [2]; 6 h, Rep2",0%
same,mortality at 0.39 ppm,"Ctenocephalides felis [2]; 6 h, Rep1",0%
same,mortality at 0.39 ppm,"Ctenocephalides felis [2]; 6 h, Rep2",0%
same,mortality at 1.56 ppm,"Ctenocephalides felis [2]; 6 h, Rep1",0%
same,mortality at 1.56 ppm,"Ctenocephalides felis [2]; 6 h, Rep2",0%
same,mortality at 6.25 ppm,"Ctenocephalides felis [2]; 6 h, Rep1",0%
same,mortality at 6.25 ppm,"Ctenocephalides felis [2]; 6 h, Rep2",0%
same,mortality at 25 ppm,"Ctenocephalides felis [2]; 6 h, Rep1",0%
same,mortality at 25 ppm,"Ctenocephalides felis [2]; 6 h, Rep2",0%
same,mortality at 100 ppm,"Ctenocephalides felis [2]; 6 h, Rep1",0%
same,mortality at 100 ppm,"Ctenocephalides felis [2]; 6 h, Rep2",0%
same,mortality at 0.006 ppm,"Ctenocephalides felis [2]; 24 h, Rep1",0%
same,mortality at 0.006 ppm,"Ctenocephalides felis [2]; 24 h, Rep2",0%
same,mortality at 0.024 ppm,"Ctenocephalides felis [2]; 24 h, Rep1",0%
same,mortality at 0.024 ppm,"Ctenocephalides felis [2]; 24 h, Rep2",0%
same,mortality at 0.098 ppm,"Ctenocephalides felis [2]; 24 h, Rep1",0%
same,mortality at 0.098 ppm,"Ctenocephalides felis [2]; 24 h, Rep2",0%
same,mortality at 0.39 ppm,"Ctenocephalides felis [2]; 24 h, Rep1",0%
same,mortality at 0.39 ppm,"Ctenocephalides felis [2]; 24 h, Rep2",0%
same,mortality at 1.56 ppm,"Ctenocephalides felis [2]; 24 h, Rep1",0%
same,mortality at 1.56 ppm,"Ctenocephalides felis [2]; 24 h, Rep2",0%
same,mortality at 6.25 ppm,"Ctenocephalides felis [2]; 24 h, Rep1",10%
same,mortality at 6.25 ppm,"Ctenocephalides felis [2]; 24 h, Rep2",10%
same,mortality at 25 ppm,"Ctenocephalides felis [2]; 24 h, Rep1",30%
same,mortality at 25 ppm,"Ctenocephalides felis [2]; 24 h, Rep2",20%
same,mortality at 100 ppm,"Ctenocephalides felis [2]; 24 h, Rep1",100%
same,mortality at 100 ppm,"Ctenocephalides felis [2]; 24 h, Rep2",100%
same,mortality at 0.006 ppm,"Ctenocephalides felis [2]; 48 h, Rep1",0%
same,mortality at 0.006 ppm,"Ctenocephalides felis [2]; 48 h, Rep2",0%
same,mortality at 0.024 ppm,"Ctenocephalides felis [2]; 48 h, Rep1",0%
same,mortality at 0.024 ppm,"Ctenocephalides felis [2]; 48 h, Rep2",0%
same,mortality at 0.098 ppm,"Ctenocephalides felis [2]; 48 h, Rep1",10%
same,mortality at 0.098 ppm,"Ctenocephalides felis [2]; 48 h, Rep2",10%
same,mortality at 0.39 ppm,"Ctenocephalides felis [2]; 48 h, Rep1",10%
same,mortality at 0.39 ppm,"Ctenocephalides felis [2]; 48 h, Rep2",0%
same,mortality at 1.56 ppm,"Ctenocephalides felis [2]; 48 h, Rep1",10%
same,mortality at 1.56 ppm,"Ctenocephalides felis [2]; 48 h, Rep2",30%
same,mortality at 6.25 ppm,"Ctenocephalides felis [2]; 48 h, Rep1",70%
same,mortality at 6.25 ppm,"Ctenocephalides felis [2]; 48 h, Rep2",30%
same,mortality at 25 ppm,"Ctenocephalides felis [2]; 48 h, Rep1",100%
same,mortality at 25 ppm,"Ctenocephalides felis [2]; 48 h, Rep2",100%
same,mortality at 100 ppm,"Ctenocephalides felis [2]; 48 h, Rep1",100%
same,mortality at 100 ppm,"Ctenocephalides felis [2]; 48 h, Rep2",100%
